The test concerns mice. As to the kind of experiment: SmartCube behavioral signature similarity analysis. Type of test: in vivo. Conditions: for discrimination rate vs Clozapine (1.0 mg/kg) / discrimination rate vs Olanzapine (0.25 mg/kg) / discrimination rate vs Risperidone (0.06 mg/kg): rate of 0.70 or lower = similar; for SmartCube behavioral signature class: i.p. The source says: In addition to the reversal of L-687,414 induced hyperlocomotion experiment as described above, some compounds of the present invention have been tested in SmartCube®, an automated system in which the behaviors of compound-treated mice in response to multiple challenges are captured by digital video and analyzed with computer algorithms (Roberds et al., Frontiers in Neuroscience, 2011, Vol. 5, Art. 103, 1-4; Vadim Alexandrov, Dani Brunner, Taleen Hanania, Emer Leahy Eur. J Pharmacol. 2015, 750, 82-99). In this way, the neuro-pharmacological effects of a test compound can be predicted by similarity to major classes of compounds, such as antipsychotics, anxiolytics and antidepressants. […] In addition to the above-mentioned experiments, it has been shown that some of the compounds of formula I are also ENT1 inhibitors (equilibrative nucleoside transporter 1 protein). Therapeutic potential of ENT1 inhibitors is directly or indirectly (via effects of adenosine and/or adenosine receptor modulation) described in the literature for the treatment of the following diseases: autoimmune disease (US 2006/253263), cancer (WO9857643), viral infections and fungal infections (WO2004060902), neurodegenerative disease, Parkinson's disease, Alzheimer's disease, Huntington's disease, amyotrophic lateral sclerosis, psychiatric diseases, substance abuse, ADHD, depression, epilepsy, anxiety, schizophrenia (WO0168105, EP 1252910, EP1612210, WO2009018275), autism spectrum disorders (Susan A. Masinoa, Masahito Kawamura Jr., Jessica L. Cotea, Rebecca B. Williams, David N. Ruskina, Neuropharmacology, 2013, 68, 116-121, pain (WO2009062990, WO2009064497), inflammation, asthma, (US 2007213296, Inflammation research, 2011, 60, 75-76), cardiovascular diseases (Trends in Pharmacological science, 2006, 27, 416-425), sleep disorders, (Psychopharmacology, 1987, 91, 434-439), and ophthalmology and inflammatory retinal diseases (World Journal of Diabetes, vol. 1, 12-18), epilepsy and neurodevelopmental disorders with co-morbid epilepsy (ENT1 Inhibition Attenuates Epileptic Seizure Severity Via Regulation of Glutamatergic Neurotransmission, Xu et al, Neuromol Med (2015) 17:1-11 and Epigenetic changes induced by adenosine augmentation therapy prevent epileptogenesis, Williams-Karneshy et al J Clin Invest. 2013 August; 123(8):3552-63.
As mentioned above, some compounds have been tested in SmartCube®, an analytical system developed by PsychoGenics Inc.
SmartCube® was used to compare the behavioral signature of a test compound to a database of behavioral signatures obtained from a large set of clinically approved reference drugs, grouped per indications. In this way, the neuro-pharmacological effects of a test compound can be predicted by similarity to major classes of compounds, such as antipsychotics, anxiolytics and antidepressants. This approach is ideally suited to screen collections of existing drugs or drug candidates with previously unknown neuropharmacology, which could expedite the development of new and unexpected treatments for psychiatric disorders.
Some compounds of the present invention were injected i.p. at different doses 15 minutes before the test. At least 8 mice were used in each treatment group. Digital videos of the subjects were processed with computer vision algorithms to extract over 2000 dependent measures including frequency and duration of many different behavioral states. The results of the classifications are presented as bar charts for each compound and dose (mg/kg), the Y-axis indicates the relative probability that the test compound will show efficacy in the specific CNS indication.
Compounds of the present invention show similar signatures to those of atypical antipsychotics. An independent analysis was performed on the unclassified data to determine the similarity of the example compounds to active doses of known atypical antipsychotics. […]

Consider eight molecules from patent publication US10519140B2, “Indolin-2-one derivatives” (Hoffmann-La Roche Inc., priority 2015, dated 2019).

In the case of `Cc1ncc(-c2ccc3c(c2)N(c2cncc(N4CCOCC4)n2)C(=O)C3(C)C)cn1` [Example 1, 3,3-Dimethyl-6-(2-methylpyrimidin-5-yl)-1-(6-morpholinopyrazin-2-yl)indolin-2-one], the “SmartCube behavioral signature class” value was “similarity to atypical antipsychotics”. Moreover, under “example at 3 mg/kg i.p.”, the “discrimination rate vs Clozapine (1.0 mg/kg)” value amounted to 0.56, the “discrimination rate vs Olanzapine (0.25 mg/kg)” value is on record as 0.59 and the “discrimination rate vs Risperidone (0.06 mg/kg)” value was determined as 0.83.
Regarding `Cc1ncc(-c2ccc3c(c2)N(c2cncc(N4CCCC4=O)n2)C(=O)C3(C)C)cn1` [Example 3, 3,3-Dimethyl-6-(2-methylpyrimidin-5-yl)-1-(6-(2-oxopyrrolidin-1-yl)pyrazin-2-yl)indolin-2-one], the “SmartCube behavioral signature class” value is “similarity to atypical antipsychotics”. Under “example at 5 mg/kg i.p.”, the “discrimination rate vs Clozapine (1.0 mg/kg)” value is given as 0.62, the “discrimination rate vs Olanzapine (0.25 mg/kg)” value is listed as 0.66 and the “discrimination rate vs Risperidone (0.06 mg/kg)” value worked out at 0.68.
Regarding `Cc1ncc(-c2ccc3c(c2)N(c2cncc(N4CCOC4=O)n2)C(=O)C3(C)C)cn1` [Example 15, 3-(6-(3,3-Dimethyl-6-(2-methylpyrimidin-5-yl)-2-oxoindolin-1-yl)pyrazin-2-yl)oxazolidin-2-one], the “SmartCube behavioral signature class” value is listed as “similarity to atypical antipsychotics”. In addition, for the setting “example at 3 mg/kg i.p.”, the “discrimination rate vs Clozapine (1.0 mg/kg)” value amounted to 0.57, the “discrimination rate vs Olanzapine (0.25 mg/kg)” value is 0.56 and the “discrimination rate vs Risperidone (0.06 mg/kg)” value is 0.59.
Consider `Cc1ncc(-c2ccc3c(c2)N(c2cnc(C)c(N4CCOCC4)n2)C(=O)C3(C)C)cn1` [Example 18, 3,3-Dimethyl-1-(5-methyl-6-morpholinopyrazin-2-yl)-6-(2-methylpyrimidin-5-yl)indolin-2-one], for which the “SmartCube behavioral signature class” value is listed as “similarity to atypical antipsychotics”. Also, for the setting “example at 3 mg/kg i.p.”, the “discrimination rate vs Clozapine (1.0 mg/kg)” value was 0.61, the “discrimination rate vs Olanzapine (0.25 mg/kg)” value was 0.62 and the “discrimination rate vs Risperidone (0.06 mg/kg)” value is 0.73.
On to `Cc1ncc(-c2ccc3c(c2)N(c2cnc(C)c(N4CCOC4=O)n2)C(=O)C3(C)C)cn1` [Example 20, 3-(6-(3,3-Dimethyl-6-(2-methylpyrimidin-5-yl)-2-oxoindolin-1-yl)-3-methylpyrazin-2-yl)oxazolidin-2-one], for which the “SmartCube behavioral signature class” value was “similarity to atypical antipsychotics”. Under “example at 3 mg/kg i.p.”, the “discrimination rate vs Clozapine (1.0 mg/kg)” value is recorded as 0.53, the “discrimination rate vs Olanzapine (0.25 mg/kg)” value was 0.51 and the “discrimination rate vs Risperidone (0.06 mg/kg)” value is reported as 0.57.
For the molecule `Cc1ncc(-c2ccc3c(c2)N(c2ccc4c(n2)N(C)C(=O)C4(C)C)C(=O)C3(C)C)cn1` [Example 39, 6-(3,3-Dimethyl-6-(2-methylpyrimidin-5-yl)-2-oxoindolin-1-yl)-1,3,3-trimethyl-1H-pyrrolo[2,3-b]pyridin-2(3H)-one], the “SmartCube behavioral signature class” value is given as “similarity to atypical antipsychotics”. For the setting “example at 3 mg/kg i.p.”, the “discrimination rate vs Clozapine (1.0 mg/kg)” value was 0.59, the “discrimination rate vs Olanzapine (0.25 mg/kg)” value worked out at 0.58 and the “discrimination rate vs Risperidone (0.06 mg/kg)” value was found to be 0.62.
For `Cc1ncc(-c2ccc3c(c2)N(c2cnc(-n4ccnc4C)cn2)C(=O)C3(C)C)cn1` [Example 50, 3,3-Dimethyl-1-(5-(2-methyl-1H-imidazol-1-yl)pyrazin-2-yl)-6-(2-methylpyrimidin-5-yl)indolin-2-one] the same measures were “similarity to atypical antipsychotics”, 0.52, 0.51 and 0.63.
For the molecule `Cc1ncc(-c2ccc3c(c2)N(c2cnc4c(c2)C(C)(C)C(=O)N4C)C(=O)C3(C)C)cn1` [Example 54, 5-(3,3-Dimethyl-6-(2-methylpyrimidin-5-yl)-2-oxoindolin-1-yl)-1,3,3-trimethyl-1H-pyrrolo[2,3-b]pyridin-2(3H)-one], the “SmartCube behavioral signature class” value is given as “similarity to atypical antipsychotics”. For the same molecule, for the setting “example at 3 mg/kg i.p.”, the “discrimination rate vs Clozapine (1.0 mg/kg)” value was 0.54, the “discrimination rate vs Olanzapine (0.25 mg/kg)” value stood at 0.51 and the “discrimination rate vs Risperidone (0.06 mg/kg)” value worked out at 0.57.
